Data reported in patent publication US7147849B2, “Pharmaceutical formulation” (Bitop AG, priority 1999, dated 2006).

Tested on: human L540Cy tumors
Set-up: species or system SCID mice
Settings: mouse, in vivo

CC1=NC[C@H](O)[C@@H](C(=O)O)N1 [S,S-β-hydroxyectoine]
tumor development compared with PBS without S,S-β-hydroxyectoine: faster tumor development
average survival rates calculated according to Kaplan-Meier (iv): 30.0 (±2) days
